{"source": "patent US4940705A", "about": "“N-substituted derivatives of 1-desoxynojirimycin and 1-desoxymannonojirimycin and pharmaceutical use” (Bayer Aktiengesellschaft, priority 1987, dated 1990)", "key": {"Visna virus": {"system": "Visna virus", "assay": "Visna virus test: inhibition of virus-induced cytopathic effect / virus multiplication in infected cell cultures", "type": "cell-based", "details": "Visna-maedi virus, 168 h, sheep fibroblast cells, 7 days at 37° C., Table 1, read-out: 2 MIC (minimum concentration at which an inhibition of virus multiplication was still observed)", "experimental": "In cell cultures which are infected with Visna virus, pronounced virus-induced, cytopathic effects appear 5 to 10 days after infection. By treatment of the infected cell cultures with the compounds according to the invention, the appearance of these cytopathic effects could be prevented.\n(§1) The Visna virus test was carried out by the method of O. Narayan et al., Journal of Infectious Diseases 135, 5, 1977, 800-806. For this, the compounds according to the invention were diluted to non-cytotoxic concentrations in culture medium in 96-well microtiter plates. Subsequently, sheep fibroblast cells (5×10^4 cells per well) in production medium were added to each well. Each well then contained 50 μl of a Visna virus solution having a titre of about 2.5×10^4TCID50 (TCID=tissue culture infectious dose). This virus dose corresponds to an MOI (multiplicity of infection) of about 0.05.\nThe infected and treated cells and the controlled cells were incubated for 7 days at 37° C. and 5% CO2.\nOn appearance of the virus-induced cytopathogenic effect in the untreated virus control, the cultures were fixed using formalin and subsequently stained with a Giemsa solution.\n(§2) Herein, MCC denotes cytotoxicity and MIC denotes the minimum concentration at which an inhibition of virus multiplication was still observed."}, "Cytotoxicity (MCC)": {"assay": "Cytotoxicity (MCC)", "type": "cell-based", "details": "sheep, sheep fibroblast cells; MCC denotes cytotoxicity; Table 1", "experimental": "as §1, §2"}}}
{"smiles": "O=C(CCN1C[C@@H](O)[C@@H](O)[C@H](O)[C@H]1CO)N1CCN(c2ccc(F)cc2)CC1", "note": "[Example 82, 3-(1,5-Didesoxy-1,5-imino-D-mannit-N-yl)-propionyl-1-(4-p-fluorophenyl)piperazine]", "values": [{"measurement": "MIC", "setting": "Visna virus", "result": 500, "unit": "µg/mL"}, {"measurement": "MCC", "setting": "Cytotoxicity (MCC)", "result": "> 1000", "unit": "µg/mL"}]}
{"smiles": "Cc1ccc(N2CCN(C(=O)CCN3C[C@H](O)[C@@H](O)[C@H](O)[C@H]3CO)CC2)cc1", "note": "[Example 87, 3-(1,5-Didesoxy-1,5-imino-D-glucit-N-yl)-propionyl-1-(4-tolyl)piperazine]", "values": [{"measurement": "MIC", "setting": "Visna virus", "result": 250, "unit": "µg/mL"}, {"measurement": "MCC", "setting": "Cytotoxicity (MCC)", "result": "> 1000", "unit": "µg/mL"}]}
{"smiles": "O=C(CCN1C[C@H](O)[C@@H](O)[C@H](O)[C@H]1CO)NCc1ccc(C(F)(F)F)cc1", "note": "[Example 89, N-(4-Trifluoromethylbenzyl)-3-(1,5-didesoxy-1,5-imino-D-glucit-N-yl)propionamide]", "values": [{"measurement": "MIC", "setting": "Visna virus", "result": 500, "unit": "µg/mL"}, {"measurement": "MCC", "setting": "Cytotoxicity (MCC)", "result": 1000, "unit": "µg/mL"}]}
{"smiles": "O=C(CCN1C[C@H](O)[C@@H](O)[C@H](O)[C@H]1CO)NCC(=O)c1ccccc1", "note": "[Example 90]", "values": [{"measurement": "MIC", "setting": "Visna virus", "result": 250, "unit": "µg/mL"}, {"measurement": "MCC", "setting": "Cytotoxicity (MCC)", "result": 1000, "unit": "µg/mL"}]}
{"smiles": "O=C(CCN1C[C@H](O)[C@@H](O)[C@H](O)[C@H]1CO)N1CCN(c2ccccc2F)CC1", "note": "[Example 92, 3-(1,5-Didesoxy-1,5-imino-D-glucit-N-yl)propionyl-1-(4-2-fluorophenyl)piperazine]", "values": [{"measurement": "MIC", "setting": "Visna virus", "result": 250, "unit": "µg/mL"}, {"measurement": "MCC", "setting": "Cytotoxicity (MCC)", "result": "> 1000", "unit": "µg/mL"}]}
{"smiles": "Cc1cccc(N2CCN(C(=O)CCN3C[C@H](O)[C@@H](O)[C@H](O)[C@H]3CO)CC2)c1", "note": "[Example 93, 3-(1,5-Didesoxy-1,5-imino-D-glucit-N-yl)propionyl-1-(3-methylphenyl)piperazine]", "values": [{"measurement": "MIC", "setting": "Visna virus", "result": 500, "unit": "µg/mL"}, {"measurement": "MCC", "setting": "Cytotoxicity (MCC)", "result": "> 1000", "unit": "µg/mL"}]}
{"smiles": "O=C(CCN1C[C@H](O)[C@@H](O)[C@H](O)[C@H]1CO)N1CCN(c2ccccc2[N+](=O)[O-])CC1", "note": "[Example 94, 3-(1,5-Didesoxy-1,5-imino-D-glucit-N-yl)propionyl-1-(4-2-nitrophenyl)piperazine]", "values": [{"measurement": "MIC", "setting": "Visna virus", "result": 500, "unit": "µg/mL"}, {"measurement": "MCC", "setting": "Cytotoxicity (MCC)", "result": "> 1000", "unit": "µg/mL"}]}
{"smiles": "Cc1ccccc1N1CCN(C(=O)CCN2C[C@H](O)[C@@H](O)[C@H](O)[C@H]2CO)CC1", "note": "[Example 96, 3-(1,5-Didesoxy-1,5-imino-D-glucit-N-yl)propionyl-1-(4-2-methylphenyl)piperazine]", "values": [{"measurement": "MIC", "setting": "Visna virus", "result": 500, "unit": "µg/mL"}, {"measurement": "MCC", "setting": "Cytotoxicity (MCC)", "result": "> 1000", "unit": "µg/mL"}]}
{"smiles": "O=C(CCN1C[C@H](O)[C@@H](O)[C@H](O)[C@H]1CO)N1CCN(c2ncccn2)CC1", "note": "[Example 99, 3-(1,5-Didesoxy-1,5-imino-D-glucit-N-yl)-propionyl-1-(4-[2-pyrimidyl])piperazine]", "values": [{"measurement": "MIC", "setting": "Visna virus", "result": 125, "unit": "µg/mL"}, {"measurement": "MCC", "setting": "Cytotoxicity (MCC)", "result": "> 1000", "unit": "µg/mL"}]}
{"smiles": "O=C(CCN1C[C@H](O)[C@@H](O)[C@H](O)[C@H]1CO)N1CCSCC1", "note": "[Example 100, 3-(1,5-Didesoxy-1,5-imino-D-glucit-N-yl)propionyl-1-thiomorpholide]", "values": [{"measurement": "MIC", "setting": "Visna virus", "result": 500, "unit": "µg/mL"}, {"measurement": "MCC", "setting": "Cytotoxicity (MCC)", "result": "> 1000", "unit": "µg/mL"}]}
{"smiles": "O=C(CCN1C[C@H](O)[C@@H](O)[C@H](O)[C@H]1CO)NCc1cccs1", "note": "[Example 101, N-[(Thiophen-2-yl)-methyl]-3-(1,5-didesoxy-1,5-imino-D-glucit-N-yl)propionamide]", "values": [{"measurement": "MIC", "setting": "Visna virus", "result": 125, "unit": "µg/mL"}, {"measurement": "MCC", "setting": "Cytotoxicity (MCC)", "result": 1000, "unit": "µg/mL"}]}
{"smiles": "C[C@H](NC(=O)CCN1C[C@H](O)[C@@H](O)[C@H](O)[C@H]1CO)c1ccccc1", "note": "[Example 102, N-[(1S)-1-Phenethyl]-3-(1,5-didesoxy-1,5-imino-D-glucit-N-yl)propionamide]", "values": [{"measurement": "MIC", "setting": "Visna virus", "result": 125, "unit": "µg/mL"}, {"measurement": "MCC", "setting": "Cytotoxicity (MCC)", "result": "> 1000", "unit": "µg/mL"}]}
{"smiles": "C[C@@H](NC(=O)CCN1C[C@H](O)[C@@H](O)[C@H](O)[C@H]1CO)c1ccccc1", "note": "[Example 103]", "values": [{"measurement": "MIC", "setting": "Visna virus", "result": 125, "unit": "µg/mL"}, {"measurement": "MCC", "setting": "Cytotoxicity (MCC)", "result": "> 1000", "unit": "µg/mL"}]}
{"smiles": "CCCCNC(=O)CCN1C[C@H](O)[C@@H](O)[C@H](O)[C@H]1CO", "note": "[Example 104, N-Butyl-3-(1,5-didesoxy-1,5-imino-D-glucit-N-yl)propionamide]", "values": [{"measurement": "MIC", "setting": "Visna virus", "result": 250, "unit": "µg/mL"}, {"measurement": "MCC", "setting": "Cytotoxicity (MCC)", "result": "> 1000", "unit": "µg/mL"}]}
{"smiles": "O=C(O)CCCN1C[C@H](O)[C@@H](O)[C@H](O)[C@H]1CO", "note": "[Example 107, 4-(1,5-Didesoxy-1,5-imino-D-glucit-N-yl)butanoic acid]", "values": [{"measurement": "MIC", "setting": "Visna virus", "result": 500, "unit": "µg/mL"}, {"measurement": "MCC", "setting": "Cytotoxicity (MCC)", "result": "> 1000", "unit": "µg/mL"}]}
